According to US12565501B2, “Muscarinic acetylcholine M1 receptor antagonists” (Contineum Therapeutics, Inc., priority 2019, dated 2026):

What follows are molecules tested against T1, human M1 receptor (Homo sapiens, UniProt P11229) (assay: In vitro functional assay of muscarinic acetylcholine receptor activity (aequorin calcium flux, reversal of EC80 acetylcholine response)). Details: CHO-K1 cells stably expressing human M1 receptor with aequorin; acetylcholine at EC80; calcium flux (luminescence); read-out: M1 IC50.
T1 sequence (P11229 1-460): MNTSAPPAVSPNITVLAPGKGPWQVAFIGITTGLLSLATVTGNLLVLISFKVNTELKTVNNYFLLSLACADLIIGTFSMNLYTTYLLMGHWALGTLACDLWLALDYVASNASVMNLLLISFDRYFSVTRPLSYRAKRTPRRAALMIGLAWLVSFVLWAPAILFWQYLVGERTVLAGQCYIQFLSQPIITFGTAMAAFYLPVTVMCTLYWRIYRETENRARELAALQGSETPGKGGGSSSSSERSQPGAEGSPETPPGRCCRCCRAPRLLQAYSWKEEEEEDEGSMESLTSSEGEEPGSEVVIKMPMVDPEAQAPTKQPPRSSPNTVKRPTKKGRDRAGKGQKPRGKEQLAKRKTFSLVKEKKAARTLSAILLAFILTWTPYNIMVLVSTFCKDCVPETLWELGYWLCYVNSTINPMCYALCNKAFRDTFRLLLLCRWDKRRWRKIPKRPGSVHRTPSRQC
Assay type: cell-based
Summary of the method: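 Antagonist mode: compound (final 0.1% DMSO) and coelenterazine-loaded M1/aequorin CHO-K1 cells incubated 30 min in the dark before EC80 acetylcholine addition. Calcium flash integrated as 40 s luminescence AUC; IC50 derived from dose-response curves.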
In the case of `C[C@H](OCC(=O)N1CC2CCC(C1)N2c1ccc(C#N)cn1)c1ccccc1` [Example 179, 6-(3-(2-((S)-1-phenylethoxy)acetyl)-3,8-diazabicyclo[3.2.1]octan-8-yl)nicotinonitrile], the IC50 is reported as 100 to 1000 nM. In the case of `COc1cc(C2(OCC(=O)N3CC4CCC(C3)N4c3ccc(C#N)cn3)CCC2)cnn1` [Example 275, 6-(3-(2-(1-(6-methoxypyridazin-4-yl)cyclobutoxy)acetyl)-3,8-diazabicyclo[3.2.1]octan-8-yl)nicotinonitrile], the IC50 is reported as 10 to 100 nM. In the case of `N#Cc1cc(N2C3CCC2CN(C(=O)CNC2(c4ccc(F)cc4F)CC2)C3)ccn1` [Example 84, 4-(3-((1-(2,4-difluorophenyl)cyclopropyl)glycyl)-3,8-diazabicyclo[3.2.1]octan-8-yl)picolinonitrile], the IC50 is reported as 100 to 1000 nM. For `COc1cc(C2(OCC(=O)N3CC4CCC(C3)N4c3ccc(C#N)cn3)CCC2)ncn1` [Example 263, 6-(3-(2-(1-(6-methoxypyrimidin-4-yl)cyclobutoxy)acetyl)-3,8-diazabicyclo[3.2.1]octan-8-yl)nicotinonitrile], the IC50 was 10 to 100 nM. With `N#Cc1ccc(N2[C@@H]3CC[C@H]2CN(C(=O)CCNC2(c4ccc(F)cc4F)CC2)C3)nc1` [Example 26, 6-(3-(3-((1-(2,4-difluorophenyl)cyclopropyl)amino)propanoyl)-3,8-diazabicyclo[3.2.1]octan-8-yl)nicotinonitrile] the IC50 was 10 to 100 nM. Work on `N#Cc1ccc(N2C3CCC2CN(C(=O)CCN2CC(c4ccc(F)cc4)C2)C3)nc1` [Example 24] yielded an IC50 of over 1000 nM. In the case of `N#Cc1ccc(N2[C@@H]3CC[C@H]2CN(C(=O)/C=C/C(F)(F)c2cccc4nccnc24)C3)nc1` [Example 125, 6-(3-((E)-4,4-difluoro-4-(quinoxalin-5-yl)but-2-enoyl)-3,8-diazabicyclo[3.2.1]octan-8-yl)nicotinonitrile], the IC50 is reported as under 10 nM. `COc1cc(F)cc(C2(NCC(=O)N3CC4CCC(C3)N4c3ccc(C#N)cn3)CC2)c1` [Example 110, 6-(3-((1-(3-fluoro-5-methoxyphenyl)cyclopropyl)glycyl)-3,8-diazabicyclo[3.2.1]octan-8-yl)nicotinonitrile] gave an IC50 of under 10 nM. Work on `N#Cc1ccc(N2[C@@H]3CC[C@H]2CN(C(=O)CCNC2(c4ccc(F)c(F)c4)CC2)C3)nn1` [Example 42, 6-(3-(3-((1-(3,4-difluorophenyl)cyclopropyl)amino)propanoyl)-3,8-diazabicyclo[3.2.1]octan-8-yl)pyridazine-3-carbonitrile] yielded an IC50 of under 10 nM. Work on `N#Cc1ccc(N2C[C@@H]3C[C@H]2CN3C(=O)COC2(c3ccc(F)c(F)c3)CC2)nc1` [Example 287, 6-((1S,4S)-5-(2-(1-(3,4-difluorophenyl)cyclopropoxy)acetyl)-2,5-diazabicyclo[2.2.1]heptan-2-yl)nicotinonitrile] yielded an IC50 of 1000 to 10000 nM. Work on `N#Cc1ccc(N2C3CCC2CN(C(=O)CNC2(c4ccncc4)CC2)C3)nc1` [Example 102, 6-(3-((1-(pyridin-4-yl)cyclopropyl)glycyl)-3,8-diazabicyclo[3.2.1]octan-8-yl)nicotinonitrile] yielded an IC50 of 100 to 1000 nM. Molecule `COc1ncccc1C(F)(F)CCC(=O)N1CC2CCC(C1)N2c1ccc(C#N)cn1` [Example 159, 6-(3-(4,4-difluoro-4-(2-methoxypyridin-3-yl)butanoyl)-3,8-diazabicyclo[3.2.1]octan-8-yl)nicotinonitrile] has an IC50 of under 10 nM. With `Cc1noc(C)c1C1(OCC(=O)N2CC3CCC(C2)N3c2ccc(C#N)cn2)CCC1` [Example 265, 6-(3-(2-(1-(3,5-dimethylisoxazol-4-yl)cyclobutoxy)acetyl)-3,8-diazabicyclo[3.2.1]octan-8-yl)nicotinonitrile] the IC50 was under 10 nM. Molecule `N#Cc1ccc(N2C3CCC2CN(C(=O)COC2(c4cncc(F)c4)CCC2)C3)nc1` [Example 251, 6-(3-(2-(1-(5-fluoropyridin-3-yl)cyclobutoxy)acetyl)-3,8-diazabicyclo[3.2.1]octan-8-yl)nicotinonitrile] has an IC50 of 100 to 1000 nM. `N#Cc1ccc(N2C3CCC2CN(C(=O)COC2(c4ccc(F)cn4)CCC2)C3)nc1` [Example 249, 6-(3-(2-(1-(5-fluoropyridin-2-yl)cyclobutoxy)acetyl)-3,8-diazabicyclo[3.2.1]octan-8-yl)nicotinonitrile] showed an IC50 of 10 to 100 nM. For `N#Cc1ccc(N2[C@@H]3CC[C@H]2CN(C(=O)CCNC2(c4ccc(Cl)c(Cl)c4)CC2)C3)nc1` [Example 10, 6-(3-(3-((1-(3,4-dichlorophenyl)cyclopropyl)amino)propanoyl)-3,8-diazabicyclo[3.2.1]octan-8-yl)nicotinonitrile], the IC50 was under 10 nM. `N#Cc1ccc(N2C[C@H]3C[C@@H]2CN3C(=O)COC2(c3ccc(F)c(F)c3)CC2)nc1` [Example 285, 6-((1R,4R)-5-(2-(1-(3,4-difluorophenyl)cyclopropoxy)acetyl)-2,5-diazabicyclo[2.2.1]heptan-2-yl)nicotinonitrile] gave an IC50 of over 1000 nM. Work on `N#Cc1ccc(N2C3CCC2CN(C(=O)CNC2(c4cc(F)ccc4F)CC2)C3)nc1` [Example 71, 6-(3-((1-(2,5-difluorophenyl)cyclopropyl)glycyl)-3,8-diazabicyclo[3.2.1]octan-8-yl)nicotinonitrile] yielded an IC50 of 100 to 1000 nM. `CCC(OCC(=O)N1CC2CCC(C1)N2c1ccc(C#N)cn1)c1cc(F)cc(Br)c1` (racemic) [Example 218, 6-(3-(2-(1-(3-bromo-5-fluorophenyl)propoxy)acetyl)-3,8-diazabicyclo[3.2.1]octan-8-yl)nicotinonitrile] was tested, and the IC50 was under 10 nM. Work on `N#Cc1ccc(N2C3CCC2CN(C(=O)CN2CC(c4ccc(F)cc4)C2)C3)nc1` [Example 105, 6-(3-(2-(3-(4-fluorophenyl)azetidin-1-yl)acetyl)-3,8-diazabicyclo[3.2.1]octan-8-yl)nicotinonitrile] yielded an IC50 of over 1000 nM. `COc1cccc2c1CCN(CC(=O)N1CC3CCC(C1)N3c1ccc(C#N)cn1)C2C` (racemic) [Example 121, 6-(3-(2-(5-methoxy-1-methyl-3,4-dihydroisoquinolin-2(1H)-yl)acetyl)-3,8-diazabicyclo[3.2.1]octan-8-yl)nicotinonitrile] showed an IC50 of 100 to 1000 nM. For `COc1cc(C2(/C=C/C(=O)N3CC4CCC(C3)N4c3ccc(C#N)cn3)CCC2)ccn1` [Example 151, 6-(3-((E)-3-(1-(2-methoxypyridin-4-yl)cyclobutyl)acryloyl)-3,8-diazabicyclo[3.2.1]octan-8-yl)nicotinonitrile], the IC50 was under 10 nM. `COc1cccc(C2(OCC(=O)N3CC4CCC(C3)N4c3ccc(C#N)cn3)COC2)c1` [Example 242, (3-(2-((3-(3-methoxyphenyl)oxetan-3-yl)oxy)acetyl)-3,8-diazabicyclo[3.2.1]octan-8-yl)nicotinonitrile] was tested, and the IC50 was 10 to 100 nM. For `N#Cc1ccc(N2C3CCC2CN(C(=O)CNC2(c4cccc(C#N)c4)CC2)C3)nc1` [Example 62, 6-(3-((1-(3-cyanophenyl)cyclopropyl)glycyl)-3,8-diazabicyclo[3.2.1]octan-8-yl)nicotinonitrile], the IC50 was 100 to 1000 nM. Molecule `N#Cc1ccc(N2C3CCC2CN(C(=O)COC2(c4ccc(F)cc4Br)CC2)C3)nc1` [Example 221, 6-(3-(2-(1-(2-bromo-4-fluorophenyl)cyclopropoxy)acetyl)-3,8-diazabicyclo[3.2.1]octan-8-yl)nicotinonitrile] has an IC50 of 10 to 100 nM. `N#Cc1ccc(N2C3CCC2CN(C(=O)COC2(c4cc(F)ccc4Br)CC2)C3)nc1` [Example 220, 6-(3-(2-(1-(2-bromo-5-fluorophenyl)cyclopropoxy)acetyl)-3,8-diazabicyclo[3.2.1]-8-yl)nicotinonitrile] gave an IC50 of under 10 nM. `N#Cc1ccc(N2C[C@H]3C[C@@H]2CN3C(=O)CNC2(c3ccc(F)cc3F)CC2)nc1` [Example 80, 6-((1R,4R)-5-((1-(2,4-difluorophenyl)cyclopropyl)glycyl)-2,5-diazabicyclo[2.2.1]heptan-2-yl)nicotinonitrile] showed an IC50 of over 1000 nM. `N#Cc1ccc(N2[C@@H]3CC[C@H]2CN(C(=O)CCNC2(c4cncc(F)c4)CC2)C3)nc1` [Example 30, 6-(3-(3-((1-(5-fluoropyridin-3-yl)cyclopropyl)amino)propanoyl)-3,8-diazabicyclo[3.2.1]octan-8-yl)nicotinonitrile] gave an IC50 of 100 to 1000 nM. Molecule `N#Cc1ccc(N2C3CCC2CN(C(=O)CCC(F)(F)c2cccc4ncnn24)C3)nc1` [Example 163, 6-(3-(4-([1,2,4]triazolo[1,5-a]pyridin-5-yl)-4,4-difluorobutanoyl)-3,8-diazabicyclo[3.2.1]octan-8-yl)nicotinonitrile] has an IC50 of under 10 nM. In the case of `N#Cc1ccc(C2(OCC(=O)N3CC4CCC(C3)N4c3ccc(C#N)cn3)CC2)cc1` [Example 296, 6-(3-(2-(1-(4-cyanophenyl)cyclopropoxy)acetyl)-3,8-diazabicyclo[3.2.1]octan-8-yl)nicotinonitrile], the IC50 is reported as 1000 to 10000 nM. `N#Cc1ccc(N2C3CCC2CN(C(=O)/C=C/C(F)(F)c2ccc(F)cc2)C3)nc1` [Example 123, 6-(3-((E)-4,4-difluoro-4-(4-fluorophenyl)but-2-enoyl)-3,8-diazabicyclo[3.2.1]octan-8-yl)nicotinonitrile] was tested, and the IC50 was 10 to 100 nM. In the case of `N#Cc1ccc(C2(NCC(=O)N3CC4CCC(C3)N4c3ccc(C#N)cn3)CC2)cc1` [Example 100, 6-(3-((1-(4-cyanoplKml)cyclopropyl)glycyl)-3,8-diazabicyclo[3.2.1]oclaii-8-yl)mcotiiiomtrile], the IC50 is reported as over 1000 nM. `COc1ccncc1C(F)(F)/C=C/C(=O)N1C[C@H]2CC[C@@H](C1)N2c1ccc(C#N)cn1` [Example 143, 6-(3-((E)-4,4-difluoro-4-(4-methoxypyridin-3-yl)but-2-enoyl)-3,8-diazabicyclo[3.2.1]octan-8-yl)nicotinonitrile] gave an IC50 of under 10 nM.
